Results from US20220162552A1, “Nonviral Modification of T Cell Gene Expression” (Precision NanoSystems Inc., priority 2019, published 2022).

Key:
Type in all cases: cell-based
[1] = tested on: primary human T cells (live CD4+/CD8+ T cells); test: eGFP mRNA LNP transfection of activated T cells on day 7, 2 μg mRNA per 500,000 cells, flow cytometry after 48 h; conditions: for MFI results by ionizable lipid: MC3 versus BOCHD-C3-DMA; for activity of the lipid mix composition to transfect T cells by ionizable lipid (FIG. 10 upper): same ratios and materials, ionizable lipid varied
Description: All reagents from StemCell Technologies unless otherwise stated. T cells were isolated from whole human peripheral blood using a negative selection isolation procedure (EasySep™ Human T Cell Isolation Kit). T cell activation and expansion was carried out using Immunocult™ Human CD3/CD28/CD2 Activator in ImmunoCult™ Human T Cell Expansion Media supplemented with recombinant human IL-2 (Peprotech Inc., Rocky Hill USA). T cells typically enter a logarithmic phase of growth 48-96 hours after activation, which phase is characterized by a period of rapid proliferation and metabolic activity for 24-72 hours followed by a plateau in the growth curve as the cells start to return to a quiescent state. As depicted in FIG. 1, T cells may be exposed to lipid nucleic acid before or during the log phase of growth (day 3), or after the log phase of growth (day 7).
We tested the compositions of new Lipid Mixes against standard Lipid Mix A (all with BOCHD-C3-DMA as IL unless otherwise stated) using the triple T cell activation protocol (Pan T cells were activated with trio activator comprising anti-CD3/CD28/CD2 antibody) in LNP-mediated mRNA delivery and expression in vitro.
LNP formulated EGFP mRNA (Trilink Biotechnologies, San Diego, Calif.) was added to 500,000 T cells in 1 mL of complete T cell media, with 1 μg/mL of Recombinant Human ApoE4 (“ApoE”) (Peprotech Inc.).
The volume of LNAP required to achieve the desired dose of mRNA was calculated based on the concentration of encapsulated mRNA as determined by modified Ribogreen™ assay. T cells were counted through Trypan blue (Sigma) exclusion and diluted to 500,000 cells/mL. Briefly, in a 12 well plate, 1 mL was aliquoted into each well. ApoE was added to a final concentration of 1 ug/mL in each well. Based upon the calculation in step 1, the required amount of mRNA LNP was added, in this case 2 μg, and the plate incubated for 48 hours.
Different lipid mix compositions were tested for their ability to induce transfection as measured by geometric mean fluorescence intensity of GFP expressed in T cells (as measured by flow cytometry).
Three isolations of T cells were taken from a single donor and divided into three groups: Pan T cells (all T cells), CD4+ T cells alone, and CD8+ T cells alone. At 48H following lipid particle mRNA exposure, the treated T cells were harvested by transferring the cell suspensions to pre-labeled 1.5 mL tubes and centrifuged 300×g at 4 degrees Celsius for 10 minutes. Supernatant was removed and the pellet resuspended in PBS. An amount of 0.5 ul of BD Horizon™ Fixable Viability Stain 575V™ (BD Biosciences) was added, and the mixture incubated in the dark for 10 minutes at RT. The cells were centrifuged again as before, then washed twice with 1 mL of Stain buffer (BSA, BD Pharminigen), and the washed pellet placed in 100 μl BSA. The following antibodies were added to each tube of treated cells in 2 μl volumes: anit-CD25, anti-CD8, anti-CD4, (PerCP-Cy 5.5 Mouse Anti Human CD25, BV786 Mouse Anti-Human CD8 Clone RPA-T8, and APC-Cy™ 7 Mouse Anti-Human CD4 Clone SK3, all from BD Pharmingen). For compensation purposes, in the GFP only sample and viability control, no antibody was added, while in the single stain compensation tubes, only one antibody was added.
The tubes were incubated at 4 degrees C. for 30 min, whereupon […] of stain buffer (BSA) was added, and the cells were centrifuged again. Cells were washed once with 1 mL of stain buffer and spun down again as in step 1. Cell pellets were resuspended in 1 mL of stain buffer and added to pre-labeled flow tubes with cell strainer caps (Corning Falcon).
Histogram Analysis of T Cell Populations was generated as follows: Flow cytometry was performed on the live primary human T cells. […] All LNP compositions contained BOCHD-C3-DMA as ionizable lipid (IL). […]

primary human T cells = test: EPO mRNA LNP delivery to T cells, Human Epo ELISA; conditions: CT10 LNPs, 48 h
Description: Reagents were acquired from Quantikine, Minneapolis, Minn. The assay was performed as directed on the Quantikine® IVD® ELISA Human Erythropoietin Immunoassay protocol REF DEP00 Package Insert. Briefly; primary human T cells were isolated from fresh whole blood using a negative selection protocol and activated using a triple activator. At 7 days post-activation, the cells were treated with mRNA LNPs encoding EPO at 2 μg mRNA per 500,000 cells and N/P 10. After 48 hours of treatment with mRNA LNPs, the T cells were harvested and lysed for cytosolic EPO and media supernatant was sampled for secreted EPO. Quantikine® Human Serum Controls were used.
Frozen human T cells, previously isolated from fresh human whole blood using a negative selection protocol, were thawed and activated using a triple activator as previously described. At seven days post-activation, T cells were dosed with CT10 formulated mRNA LNPs encoding recombinant human erythropoietin (EPO) determined by ELISA (R&D Systems) at 2 μg mRNA per 500,000 cells and N/P 10. After 48 hours of treatment with mRNA LNPs the T cells were harvested and lysed for cytosolic EPO and media supernatant was sampled for secreted EPO.

[2] = tested on: isolated primary human T cells; test: eGFP mRNA LNP transfection of T cells, 125,000 cells per well format (day 3/4/7), flow cytometry; conditions: CT10 composition, six donors, day 7
Description: Isolation of primary T cells from human whole blood and activation/expansion was performed as in general procedures above. Isolated T cells were exposed to the formulated mRNA three days after activation; in the T cell growth curve, this time point corresponds to just before or at the log phase of growth. A dose of 125 ng of CleanCap™ EGFP (Trilink Biotechnologies, San Diego, Calif.) mRNA encapsulated in LNP (see details below) was added to about 125,000 T cells in 0.25 mL of complete T cell media, with 1 ug/mL of Recombinant Human ApoE4 (“ApoE”) (Peprotech Inc., Montreal, Canada).
The volume of LNP required for T cell treatment was calculated based upon Ribogreen™ assay results. T cells were counted through Trypan blue (Sigma) exclusion and diluted to 500,000 cells/mL. […]
Lipid mix compositions were tested for their ability to induce transfection, using flow cytometry to measure the geometric mean fluorescence intensity of eGFP. Shown in FIG. 11 A(i) to D(ii) are the transfection efficiencies (i) and mean fluorescence intensities (ii) of mRNA LNPs encoding eGFP in isolated primary human T cells under various conditions. […]
GFP expression in isolated primary human T cells mediated by mRNA-LNPs containing BOCHD-C3-DMA with CT10 composition at N/P 8 is shown in FIG. 16. Transfection efficiency, viability and GFP MFI measured by flow cytometry 48 hours after LNP addition. […]

CCCCCCCCCCCCCCCCCC(=O)OC[C@H](COP(=O)([O-])OCC[N+](C)(C)C)OC(=O)CCCCCCCCCCCCCCCCC [DSPC, distearoylphosphatidylcholine]
T cell transfection by structural lipid (FIG. 8) ([1]; Lipid Mix CT22 ratios, structural lipid DOPE or DSPC, N/P 10): better than DOPE

CCCCCCCCC1CC1CCCCCCCCC(CCCCCCCCC1CC1CCCCCCCC)OC(=O)CCCN(C)C.Cl (stereo not drawn) [BOCHD-C3-DMA, 1,17-bis(2-octylcyclopropyl)heptadecan-9-yl 4-(dimethylamino) butanoate hydrochloride]
level of secreted EPO by ionizable lipid (primary human T cells): higher level of secreted EPO than MC3 LNPs | MFI results by ionizable lipid [1]: comparable | activity of the lipid mix composition to transfect T cells by ionizable lipid (FIG. 10 upper) [1]: without affecting the activity of the lipid mix composition to transfect T cells | donor to donor variability by ionizable lipid (FIG. 15) [2]: no substantial difference

CCCCC/C=C\C/C=C\CCCCCCCCC1(CCCCCCCC/C=C\C/C=C\CCCCC)OCC(CCN(C)C)O1 (stereo not drawn) [KC2, 2,2-dilinoleyl-4-(2-dimethylaminoethyl)-[1,3]-dioxolane, reference compound]
activity of the lipid mix composition to transfect T cells by ionizable lipid (FIG. 10 upper) [1]: without affecting the activity of the lipid mix composition to transfect T cells

CCCCCC=CCC=CCCCCCCCCC(CCCCCCCCC=CCC=CCCCCC)OC(=O)CCCN(C)C (stereo not drawn) [MC3, heptatriaconta-6,9,28,31-tetraen-19-yl 4-(dimethylamino)butanoate, reference compound]
MFI results by ionizable lipid [1]: comparable | activity of the lipid mix composition to transfect T cells by ionizable lipid (FIG. 10 upper) [1]: without affecting the activity of the lipid mix composition to transfect T cells | donor to donor variability by ionizable lipid (FIG. 15) [2]: no substantial difference
